Test results reported in patent publication US7871805B2, “Glucose dehydrogenase” (Toyo Boseki Kabushiki Kaisha, priority 2006, dated 2011).
Where two headings read alike, the source gives them in different places.

What was measured:
[1] = test system: GDH derived from NBRC6231; assay: Substrate specificity of purified GDH (DCPIP activity assay); type: biochemical, Penicillium lilacinoechinulatum; conditions: for Relative activity: substrate final concentration 4 mM, activity using glucose as substrate made 100%; for action of enzyme upon substrate (in words): substrate 4 mM
Protocol: (§1) The present invention is also characterized by high substrate specificity, the action upon maltose is less than 1% of the action upon glucose, and the action upon galactose is less than 2% of the action upon glucose. The action referred to herein indicates the GDH activity at a substrate concentration of 4 mM, it is measured according to Test Example described later, and in a reaction solution composition used, for the substrate concentration, the final concentration is adjusted to 4 mM.
(§2) A reaction reagent is made by mixing 15.8 mL of the PIPES buffer, 0.2 mL of the DCPIP solution and 4 mL of the D-glucose solution.
(§3) The reaction reagent (2.9 mL) is preliminarily heated at 37° C. for 5 minutes. The GDH solution (0.1 mL) is added and gently mixed, subsequently the change of absorbance at 600 nm is recorded for 5 minutes using a spectrophotometer controlled to 37° C. using water as a control, and the change of absorbance per one minute (ΔODTEST) is calculated from a linear portion of the record. The solvent in which GDH will be dissolved in place of the blinded GDH solution is added to the reagent mixture, and the change of absorbance (ΔODBLANK) per one minute is measured. The GDH activity is calculated from these values according to the following formula. One unit (U) in the GDH activity is defined as the amount of the enzyme which reduces 1 μmol DCPIP for one minute in the presence of 200 mM D-glucose. Activity (U/mL)=[—(ΔODTEST−ΔODBLANK)×3.0×dilution scale]/(16.3×0.1×1.0)
(§4) In order to know the substrate specificity of the purified GDH solutions derived from NBRC6231 and NBRC32032 obtained in Example 1, the activity was measured using the reaction reagent in which the substance shown in Table had been dissolved at a final concentration of 4 mM.

[2] = test system: GDH derived from NBRC32032; assay: as above; type: biochemical, Penicillium italicum; conditions: for Relative activity: substrate final concentration 4 mM, activity using glucose as substrate made 100%; for action of enzyme upon substrate (in words): substrate 4 mM
Protocol: as §1, §2, §3, §4

[3] = test system: GDH derived from NBRC6231; assay: Effects of chemicals on GDH activity; type: biochemical, Penicillium lilacinoechinulatum
[4] = test system: GDH derived from NBRC32032; assay: Effects of chemicals on GDH activity; type: biochemical, Penicillium italicum
[5] = 2 mM, inhibited = 10% or more activity lowering, strong = 50% or more, GDH from NBRC6231
[6] = additive final concentration 2 mM, activity with no chemical made 100, GDH from NBRC6231
[7] = 2 mM, inhibited = 10% or more activity lowering, strong = 50% or more, GDH from NBRC32032
[8] = additive final concentration 2 mM, activity with no chemical made 100, GDH from NBRC32032

Row | Compound | Relative activity [1] | Relative activity [2] | Relative activity [3, 6] | Relative activity [4] | further results
1 | OC[C@H]1O[C@H](O[C@H]2[C@H](O)[C@@H](O)C(O)O[C@@H]2CO)[C@H](O)[C@@H](O)[C@@H]1O (mixture of isomers) [Maltose] | 0.5% | 0.2% |  |  | 
2 | O=CC[C@@H](O)[C@H](O)[C@H](O)CO [2-deoxy-D-glucose] | 14.3% | 17.2% |  |  | action of enzyme upon substrate (in words) [1]: acted upon; action of enzyme upon substrate (in words) [2]: acted upon
3 | O=[N+]([O-])[O-].[Ag+] [AgNO3, silver nitrate] |  |  | 20.9 | 15.0 | inhibitory effect (in words) [3, 5]: strong inhibitory effect; inhibitory effect (in words) [4]: strong inhibitory effect
4 | O=C[C@@H](O)[C@H](O)[C@H](O)CO [Arabinose] | 0.2% | 0.2% |  |  | 
5 | CC(=O)[O-].CC(=O)[O-].[Ba+2] [Ba(OAc)2] |  |  | 106 | 106 | 
6 | OB(O)O [Borate] |  |  | 111 | 102 | 
7 | [Ca+2].[Cl-].[Cl-] [CaCl2] |  |  | 103 | 103 | 
8 | CC(=O)[O-].CC(=O)[O-].[Cd+2] [Cd(OAc)2, cadmium acetate] |  |  | 41.0 | 41.4 | inhibitory effect (in words) [3, 5]: strong inhibitory effect; inhibitory effect (in words) [4]: strong inhibitory effect
9 | [Cl-].[Cl-].[Co+2] [CoCl2] |  |  |  | 102 | Relative activity [3]: 94.1
10 | O=S(=O)([O-])[O-].[Cu+2] [CuSO4, copper sulfate] |  |  | 2.2 | 4.5 | inhibitory effect (in words) [3, 5]: strong inhibitory effect; inhibitory effect (in words) [4]: strong inhibitory effect
11 | O=C(O)CN(CCN(CC(=O)O)CC(=O)O)CC(=O)O [EDTA] |  |  |  | 104 | Relative activity [3]: 113
12 | [Cl][Fe]([Cl])[Cl] [FeCl3, iron chloride (III)] |  |  |  | 77.5 | Relative activity [3]: 106; inhibitory effect (in words) ([4]; 2 mM): inhibited
13 | O=C(CO)[C@@H](O)[C@H](O)[C@H](O)CO [Fructose] | 0.2% | 0.3% |  |  | 
14 | O=C[C@H](O)[C@@H](O)[C@@H](O)[C@H](O)CO [Galactose] | 1.0% | 0.6% |  |  | 
15 | OCC(O)CO [Glycerin] | 0.1> % | 1.7% |  |  | 
16 | NO [Hydroxylamine] |  |  | 81.5 |  | inhibitory effect (in words) [3, 5]: inhibitory effect; inhibitory effect (in words) [4, 7]: inhibitory effect; Relative activity [4, 8]: 79.1
17 | NC(=O)CI [Iodoacetamide] |  |  |  | 101 | Relative activity [3]: 111
18 | OC[C@H]1O[C@H](O[C@H]2[C@H](O)[C@@H](O)[C@@H](O[C@H]3[C@H](O)[C@@H](O)[C@@H](O[C@H]4[C@H](O)[C@@H](O)C(O)O[C@@H]4CO)O[C@@H]3CO)O[C@@H]2CO)[C@H](O)[C@@H](O)[C@@H]1O (stereo partly shown) [Maltotetraose] | 0.1> % | 1.6% |  |  | 

Row | Compound | Relative activity [1] | Relative activity [2] | Relative activity [3, 6] | Relative activity [4] | further results
19 | OC[C@H]1O[C@@](CO)(O[C@H]2O[C@H](CO)[C@@H](O)[C@H](O)[C@H]2O)[C@@H](O[C@H]2O[C@H](CO)[C@@H](O)[C@H](O)[C@H]2O)[C@@H]1O [Melezitose] | 0.2% | 0.5% |  |  | 
20 | [Cl-].[Cl-].[Mg+2] [MgCl2] |  |  | 99.7 | 102 | 
21 | [Cl][Mn][Cl] [MnCl2] |  |  | 93.4 | 99.1 | 
22 | O=C(O)CI [Monoiodoacetic acid] |  |  |  | 73.3 | Relative activity [3]: 68.7; inhibitory effect (in words) [3]: inhibitory effect; inhibitory effect (in words) [4]: inhibitory effect
23 | CCN1C(=O)C=CC1=O [N-ethylmaleimide] |  |  | 86.8 |  | inhibitory effect (in words) [3, 5]: inhibitory effect; inhibitory effect (in words) [4, 7]: inhibitory effect; Relative activity [4, 8]: 87.8
24 | [F-].[Na+] [NaF] |  |  | 111 | 102 | 
25 | [N-]=[N+]=[N-].[Na+] [NaN3, sodium azide] |  |  | 89.3 | 97.8 | inhibitory effect (in words) [3, 5]: inhibited
26 | [Cl][Ni][Cl] [NiCl2] |  |  | 96.6 | 101 | 
27 | O=C[C@H](O)[C@H](O)[C@H](O)CO [Ribose] | 0.1> % | 0.2% |  |  | 
28 | O=C(CO)[C@H](O)[C@@H](O)[C@H](O)CO [Sorbose] | 0.1> % | 0.5% |  |  | 
29 | OC[C@H]1O[C@@](CO)(O[C@H]2O[C@H](CO)[C@@H](O)[C@H](O)[C@H]2O)[C@@H](O)[C@@H]1O [Sucrose] | 0.6% | 1.1% |  |  | 
30 | OC[C@H]1O[C@H](O[C@H]2O[C@H](CO)[C@@H](O)[C@H](O)[C@H]2O)[C@H](O)[C@@H](O)[C@@H]1O [Trehalose] | 0.3% | 0.1> % |  |  | 
31 | O=C[C@H](O)[C@@H](O)[C@H](O)CO [Xylose] | 10.1% | 10.4% |  |  | action of enzyme upon substrate (in words) [1]: acted upon; action of enzyme upon substrate (in words) [2]: acted upon
32 | [Cl-].[Cl-].[Zn+2] [ZnCl2] |  |  | 76.2 | 75.1 | 
33 | c1cnc2c(c1)ccc1cccnc12 [o-phenanthroline] |  |  |  | 103 | Relative activity [3]: 106
34 | c1ccc(-c2ccccn2)nc1 [α,α′-dipyridyl] |  |  |  | 102 | Relative activity [3]: 109
35 | Maltotriose | 0.2% | 1.0% |  |  | 
